These are literature values, as cited in PMC9063988 (JACS Au, 2022).

For the series, the system named is uptake of ETP transporter 21 into HeLa Kyoto cells.

For `O[C@H](CS)[C@@H](O)CS` [DTE, 1,4-Dithioerythritol], the “inhibition of thiol-mediated uptake” value is “fail to inhibit”.
